In patent US20190255144A1, “SPECIFIC OLIGOPEPTIDES AS ANTI-ANGIOGENIC DRUGS” (NEURONAX, priority 2014, published 2019):
“Also recorded” adds a separate entry of the source.

Tested on: chorioallantoic membrane (CAM) vascularization
Experiment: Treatments on the chorioallantoic membrane (CAM), fluorescein angiography
Format: in vivo, chicken embryo
Details: impregnated sponge on CAM at ED9; oligopeptide 250 μg/mL (9 hours), VEGF 10 ng/mL; listed as oligopeptide according to the invention
From the text: In fact, TSP-1 is known for inducing the apoptosis of endothelial cells. […] It is also a decisive process under certain physiological and pathological conditions (cancers in particular). This mechanism is controlled by numerous factors having either an inhibitor potential or an activator. So as to evaluate the main properties of these in vivo factors, the most common model is the CAM (chorioallantoic membrane) model from the chicken embryo (Ribatti et al., 2000). It offers the advantage of making it possible to test the pro- or anti-angiogenic factors during an active angiogenesis phase between the embryonic stages 4j and 10j. The major effects of the various molecules can therefore be evaluated in vivo. The model of the CAM can also be used in experimental tumor development. The grafting of human cancer cells onto the surface of the CAM is carried out in the 9-day embryonic stage. Three days after the grafting at ED12, the formation of a tumor is visible at the surface of the CAM. The latter can be treated topically during the 48 hours that follow this stage, and the tumors are sampled at ED14j. The fertilized eggs (Haas Poultry Farm, Strasbourg, France) are kept for 24 hours at 18° C. before the incubation is started up. […] The embryonic stages are determined from tables of Hamburger and Hamilton (H and H, 1951). […]

—W—S-G-W—S—S—C—S—R—S—C-G- (WSGWSSCSRSCG; Oligopeptide derived from SCO-Spondin) [NX]
Vascularization / microvascularization of the CAM (in words): inhibition of vascularization; also recorded: comparable to that of the Bevacizumab
